Laboratory results from patent US20210300932A1, “CYCLIC PEPTIDES TARGETING ALPHA-4-BETA-7 INTEGRIN” (Zealand Pharma A/S, priority 2015, published 2021).
Each block holds one compound with its values, some of them ahead of it.

Assays:
[1] = Plasma protein binding determination, equilibrium dialysis, mouse plasma; settings: first table
plasma proteins = test: as above; settings: CD-1, mouse, % recovery, second table, Mouse plasma; equilibrium dialysis
in vitro = settings: Control buffer/Buffer at 0.1 uM % Recovery
Aqueous solubility assay = assay type: physicochemical; settings: PBS pH 7.4, four hours, room temperature
Experimental: Solutions were incubated for four hours at room temperature and stirred at 600 rpm and run in triplicate. Centrifugation was performed for 15 minutes at 6000 rpm and solution concentration was determined using HPLC-UV (photodiode array detector acquiring between 220 nm, and 300 nm wavelengths).

[2] = test system: DSS experimental model of ulcerative colitis; test: 8-Day efficacy study in DSS model (therapeutic); assay type: in vivo, C57BI/6 mice; settings: for reduction of lesion length vs vehicle group / reduction of DAI score on Day 8 vs DSS+vehicle: Day 5 to Day 8
Excerpt: The STDs in ascending order bracketing the study samples and dosing solutions • 1. The study samples • 2.
Description of Tested Compounds
Animals. Female C57BI/6 mice (Charles River, St-Constant, Qc), weighting 16-19 g at delivery were used for this study. Following arrival in the animal facility, all animals were subjected to a general health evaluation. An acclimation period of 7-14 days was allowed before the beginning of the study.
Oral dosing of the test article and the vehicle. From Day 5 to Day 8, nacellins and the vehicle were administered as a single slow bolus (over approximately 5 seconds) via oral route (p.o.), according to the procedure of administration of solution by gavage: the animal was firmly restrained. A bulb-tipped gastric gavage needle of 22G was passed through the side of the mouth and was advanced towards the oesophagus. The test articles and the vehicle were dosed orally at 5 mL/kg.
Intraperitoneal dosing of the test articles and the vehicle. On day 5, DATK32 antibody was administered in only on Day 5, as a single slow bolus (over approximately 5 seconds) via the i.p. route. […] Intraperitoneal administration was performed accordingly to the following procedure: the mouse was restrained manually and held with the head and body tilted downward. The tip of the needle (27 G) was inserted through the skin and just past the abdominal wall. A short pull back of the plunger of the syringe was done prior to administration of the solution to make sure that the syringe was not inserted in any abdominal organ (fluid would be pulled back into the syringe in this case).
Inflammation Score. Once the mouse was euthanized, the colon was collected and its length was measured. Lesion length was also measured. Colon inflammation was scored based on severity of oedema and ulceration.
Disease Activity Index (DAI) assessment. Body weight and DAI were measured on Day 5 in order to distribute DSS-treated animals in two uniform groups prior dosing. Specific symptoms associated to UC were scored based on the severity of each particular symptoms: 1—blood in stool (negative hemoccult, positive hemoccult, blood traces in stool visible, rectal bleeding); 2—stool consistency (normal, soft but still formed, very soft, diarrhea); 3—posture and fur (normal; ruffled fur; ruffled fur combined to slight hunched posture and slight dehydration; ruffled fur combined to hunched posture, dehydration and altered walking; moribund (euthanasia is mandatory before the animal reach this point). The overall DAI score was the sum of the three parameters (maximum score 9). Body weight measurement and DAI assessment were performed also on Day 8 to evaluate the effect of the treatments.
Collection of samples. On Day 8, five hours after ET02451-01, ET02452-01 and vehicle dosing, the animals were euthanized by cardiac puncture under general anesthesia, according to the “Guide to the Care and Use of Experimental Animals” published by the CCAC. Blood was transferred in a Sarstedt tube containing EDTA. Mesenteric and peripheral (inguinal, auxiliary and brachial) lymph nodes were collected and transferred on ice in corresponding tubes containing cold PBS. Nodes were kept on ice until tissue preparation.
Cell population labeling. Blood was withdrawn by cardiac puncture and collected on EDTA-coated tubes. Mensenteric lymph nodes (MLN) and peripheral lymph nodes (PLN) were also collected. Mononuclear cells from the tissues will be isolated using density gradient (Lympholyte) and they were stained with fluorescent antibodies. […] After washes, cells were fixed using BD Fix Solution. Percentage of different subpopulations of T lymphocytes were then analysed using FACSCalibur cytometer. Antibodies employed were the same as listed for the single-dose PD studies above.

Structure (SMILES): CC(C)C[C@@H]1NC(=O)[C@H](Cc2ccc(-c3ccccc3)cc2)NC(=O)[C@@H]2CCCN2[C@H](C(=O)NC(C)(C)C)[C@H](C)NC(=O)[C@H]([C@@H](C)O)NC(=O)[C@H](CC(=O)O)NC1=O [Compound No. 12]
Control buffer/Buffer at 0.1 uM Cdonor/Creciever [1]: 94%
recovery at 5 hours, 1 microM (plasma proteins): 89%
recovery at 5 hours, 0.1 uM (in vitro): 128%

Structure (SMILES): CC(C)C[C@@H]1NC(=O)[C@@H](Cc2ccc(O)cc2)NC(=O)[C@@H]2CCCN2[C@H](C(=O)NC(C)(C)C)[C@H](C)NC(=O)[C@H]([C@@H](C)O)NC(=O)[C@H](CC(=O)O)NC1=O [Compound No. 42]
Determined Concentration Rep 2 (Aqueous solubility assay): 960.0 µM

Determined Concentration Rep 2 (Aqueous solubility assay): 988.2 µM
Structure (SMILES): CC(C)C[C@@H]1NC(=O)[C@@H](Cc2ccncc2)NC(=O)[C@@H]2CCCN2[C@H](C(=O)NC(C)(C)C)[C@H](C)NC(=O)[C@H]([C@@H](C)O)NC(=O)[C@H](CC(=O)O)NC1=O [Compound No. 62]

Structure (SMILES): CC(C)C[C@@H]1NC(=O)C2(CCCC2)NC(=O)[C@@H]2CCCN2[C@H](C(=O)NC(C)(C)C)[C@H](C)NC(=O)[C@H]([C@@H](C)O)NC(=O)[C@H](CC(=O)O)NC1=O [Compound No. 88]
Determined Concentration Rep 3 (Aqueous solubility assay): 934.8 µM

Structure (SMILES): CC(C)C[C@@H]1NC(=O)c2ccc(-c3ccnc4ccccc34)c(c2)CNC(=O)[C@@H]2CCCN2[C@H](C(=O)NC(C)(C)C)[C@H](C)NC(=O)[C@H]([C@@H](C)O)NC(=O)[C@H](CC(=O)O)NC1=O [Compound No. 341]
reduction of lesion length vs vehicle group ([2]; 40 mg/kg p.o.): 53%
reduction of DAI score on Day 8 vs DSS+vehicle ([2]; 40 mg/kg p.o., b.i.d.): did not have any beneficial effect
CD3+CD4+α4β7+ cell population in mesenteric lymph nodes ([2]; 65 mg/kg i.p.): significant decrease
reduction of colon inflammation score vs vehicle ([2]; 65 mg/kg i.p.): 39%
reduction of DAI score on Day 8 vs DSS+vehicle ([2]; 65 mg/kg i.p.): 46%
reduction of lesion length vs vehicle group ([2]; 65 mg/kg i.p.): 20%

Control buffer/Buffer at 0.1 uM Cdonor/Creciever [1]: 79%
Structure (SMILES): CC(C)C[C@@H]1NC(=O)[C@H](Cc2c[nH]c3ccccc23)NC(=O)[C@@H]2CCCN2[C@H](C(=O)NC(C)(C)C)[C@H](C)NC(=O)[C@H]([C@@H](C)O)NC(=O)[C@H](CC(=O)O)NC1=O [ET00762]

% unbound (Cbuffer/Cplasma) 1 ([1]; Mouse plasma, 1 microM, replicate 1): 22.8%
Structure (SMILES): CC(C)NCC(O)COc1cccc2ccccc12 (centres unmarked) [Propranalol, propranolol, reference compound]
